The values below come from publication PMC3703287, “Analgesic effect of a mixed T-type channel inhibitor/CB2 receptor agonist” (Molecular Pain, 2013).

One assay deals with T1, CaV3.2 (Homo sapiens, UniProt O95180).
T1 construct: gene CACNA1H; α1 subunit
In words: whole-cell patch clamp, tsA-201 cells transiently expressing human CaV3.[…]. The assay is classed as cell-based. Background: In patch-clamp work, channel activity is measured electrically.

In a further assay the target is T2, human CB2 receptor (Homo sapiens, UniProt P34972).
T2 construct: gene CNR2
The assay is described as follows: [3H]CP55940 radioligand competition, membranes of HEK293 cells expressing human CB2; low-efficacy agonist in GTPγ[…] assay ([…] at […]). In kind it is binding. (In a radioligand displacement assay an active substance lowers the binding of a labelled ligand.)

Another assay deals with T3, CaV3.1 (Homo sapiens, UniProt O43497).
T3 construct: gene CACNA1G; α1 subunit
The assay is described as follows: whole-cell patch clamp, […] NMP-181, tsA-201 cells transiently expressing human CaV3.[…]. The assay is classed as cell-based.

T3 sequence (O43497 whole entry): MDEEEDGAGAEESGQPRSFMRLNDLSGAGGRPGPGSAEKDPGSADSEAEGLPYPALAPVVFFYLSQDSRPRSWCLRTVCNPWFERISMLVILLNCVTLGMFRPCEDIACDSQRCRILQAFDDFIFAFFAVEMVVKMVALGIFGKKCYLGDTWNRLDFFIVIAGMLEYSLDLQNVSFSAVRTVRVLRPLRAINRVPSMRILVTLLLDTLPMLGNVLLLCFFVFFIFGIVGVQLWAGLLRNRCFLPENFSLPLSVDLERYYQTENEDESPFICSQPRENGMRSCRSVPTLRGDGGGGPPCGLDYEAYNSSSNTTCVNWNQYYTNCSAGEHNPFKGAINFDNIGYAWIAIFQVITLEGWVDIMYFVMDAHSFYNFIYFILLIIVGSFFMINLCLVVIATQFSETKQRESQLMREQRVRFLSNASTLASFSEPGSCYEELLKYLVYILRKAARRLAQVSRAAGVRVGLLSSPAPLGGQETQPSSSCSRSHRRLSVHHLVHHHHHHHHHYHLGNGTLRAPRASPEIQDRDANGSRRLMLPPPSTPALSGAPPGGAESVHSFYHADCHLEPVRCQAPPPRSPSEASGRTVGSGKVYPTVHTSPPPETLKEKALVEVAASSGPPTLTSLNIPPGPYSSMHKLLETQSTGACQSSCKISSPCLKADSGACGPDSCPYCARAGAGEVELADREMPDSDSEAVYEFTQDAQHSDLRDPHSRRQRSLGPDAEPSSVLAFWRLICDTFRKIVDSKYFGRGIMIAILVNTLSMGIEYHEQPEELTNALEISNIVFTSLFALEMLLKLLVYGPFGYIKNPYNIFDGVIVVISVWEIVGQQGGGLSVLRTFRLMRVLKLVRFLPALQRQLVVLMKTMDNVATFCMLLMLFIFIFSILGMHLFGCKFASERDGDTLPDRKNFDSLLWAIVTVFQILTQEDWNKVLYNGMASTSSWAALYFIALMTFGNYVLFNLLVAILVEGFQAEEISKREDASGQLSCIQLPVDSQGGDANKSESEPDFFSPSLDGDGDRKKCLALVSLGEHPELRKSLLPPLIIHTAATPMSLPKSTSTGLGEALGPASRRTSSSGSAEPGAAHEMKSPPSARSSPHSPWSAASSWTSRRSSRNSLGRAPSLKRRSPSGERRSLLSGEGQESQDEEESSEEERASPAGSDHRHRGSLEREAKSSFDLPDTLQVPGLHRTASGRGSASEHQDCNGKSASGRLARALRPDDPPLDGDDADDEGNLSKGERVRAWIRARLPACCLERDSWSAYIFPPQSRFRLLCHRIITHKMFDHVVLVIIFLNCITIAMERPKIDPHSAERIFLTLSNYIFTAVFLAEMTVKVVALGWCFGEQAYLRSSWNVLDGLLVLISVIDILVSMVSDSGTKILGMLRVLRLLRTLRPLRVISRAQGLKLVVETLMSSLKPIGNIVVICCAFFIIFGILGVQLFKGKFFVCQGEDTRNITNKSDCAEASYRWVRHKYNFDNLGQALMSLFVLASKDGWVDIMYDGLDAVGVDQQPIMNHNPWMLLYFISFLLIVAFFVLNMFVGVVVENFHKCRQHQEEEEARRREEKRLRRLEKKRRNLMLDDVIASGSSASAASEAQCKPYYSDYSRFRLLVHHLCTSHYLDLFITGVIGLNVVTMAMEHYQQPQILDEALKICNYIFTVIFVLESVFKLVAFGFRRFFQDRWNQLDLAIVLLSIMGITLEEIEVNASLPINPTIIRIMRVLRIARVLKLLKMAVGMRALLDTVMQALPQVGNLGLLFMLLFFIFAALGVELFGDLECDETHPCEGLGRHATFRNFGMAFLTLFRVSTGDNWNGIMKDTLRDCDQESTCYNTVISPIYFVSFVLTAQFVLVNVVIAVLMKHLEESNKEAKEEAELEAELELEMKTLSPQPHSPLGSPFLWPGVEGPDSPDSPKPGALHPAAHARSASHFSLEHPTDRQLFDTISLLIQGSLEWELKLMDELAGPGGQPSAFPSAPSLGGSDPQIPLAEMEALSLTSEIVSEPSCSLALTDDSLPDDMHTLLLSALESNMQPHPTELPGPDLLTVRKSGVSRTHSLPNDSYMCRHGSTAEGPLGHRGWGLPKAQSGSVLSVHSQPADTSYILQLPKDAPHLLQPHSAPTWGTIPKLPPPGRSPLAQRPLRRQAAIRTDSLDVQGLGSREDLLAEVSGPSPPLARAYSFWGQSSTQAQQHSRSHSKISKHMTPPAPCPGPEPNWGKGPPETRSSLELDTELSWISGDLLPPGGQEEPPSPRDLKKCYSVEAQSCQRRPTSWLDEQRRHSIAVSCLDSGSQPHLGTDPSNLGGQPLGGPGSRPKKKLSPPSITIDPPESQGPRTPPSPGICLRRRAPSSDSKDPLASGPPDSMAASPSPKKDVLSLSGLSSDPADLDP
T1 sequence (O95180 whole entry): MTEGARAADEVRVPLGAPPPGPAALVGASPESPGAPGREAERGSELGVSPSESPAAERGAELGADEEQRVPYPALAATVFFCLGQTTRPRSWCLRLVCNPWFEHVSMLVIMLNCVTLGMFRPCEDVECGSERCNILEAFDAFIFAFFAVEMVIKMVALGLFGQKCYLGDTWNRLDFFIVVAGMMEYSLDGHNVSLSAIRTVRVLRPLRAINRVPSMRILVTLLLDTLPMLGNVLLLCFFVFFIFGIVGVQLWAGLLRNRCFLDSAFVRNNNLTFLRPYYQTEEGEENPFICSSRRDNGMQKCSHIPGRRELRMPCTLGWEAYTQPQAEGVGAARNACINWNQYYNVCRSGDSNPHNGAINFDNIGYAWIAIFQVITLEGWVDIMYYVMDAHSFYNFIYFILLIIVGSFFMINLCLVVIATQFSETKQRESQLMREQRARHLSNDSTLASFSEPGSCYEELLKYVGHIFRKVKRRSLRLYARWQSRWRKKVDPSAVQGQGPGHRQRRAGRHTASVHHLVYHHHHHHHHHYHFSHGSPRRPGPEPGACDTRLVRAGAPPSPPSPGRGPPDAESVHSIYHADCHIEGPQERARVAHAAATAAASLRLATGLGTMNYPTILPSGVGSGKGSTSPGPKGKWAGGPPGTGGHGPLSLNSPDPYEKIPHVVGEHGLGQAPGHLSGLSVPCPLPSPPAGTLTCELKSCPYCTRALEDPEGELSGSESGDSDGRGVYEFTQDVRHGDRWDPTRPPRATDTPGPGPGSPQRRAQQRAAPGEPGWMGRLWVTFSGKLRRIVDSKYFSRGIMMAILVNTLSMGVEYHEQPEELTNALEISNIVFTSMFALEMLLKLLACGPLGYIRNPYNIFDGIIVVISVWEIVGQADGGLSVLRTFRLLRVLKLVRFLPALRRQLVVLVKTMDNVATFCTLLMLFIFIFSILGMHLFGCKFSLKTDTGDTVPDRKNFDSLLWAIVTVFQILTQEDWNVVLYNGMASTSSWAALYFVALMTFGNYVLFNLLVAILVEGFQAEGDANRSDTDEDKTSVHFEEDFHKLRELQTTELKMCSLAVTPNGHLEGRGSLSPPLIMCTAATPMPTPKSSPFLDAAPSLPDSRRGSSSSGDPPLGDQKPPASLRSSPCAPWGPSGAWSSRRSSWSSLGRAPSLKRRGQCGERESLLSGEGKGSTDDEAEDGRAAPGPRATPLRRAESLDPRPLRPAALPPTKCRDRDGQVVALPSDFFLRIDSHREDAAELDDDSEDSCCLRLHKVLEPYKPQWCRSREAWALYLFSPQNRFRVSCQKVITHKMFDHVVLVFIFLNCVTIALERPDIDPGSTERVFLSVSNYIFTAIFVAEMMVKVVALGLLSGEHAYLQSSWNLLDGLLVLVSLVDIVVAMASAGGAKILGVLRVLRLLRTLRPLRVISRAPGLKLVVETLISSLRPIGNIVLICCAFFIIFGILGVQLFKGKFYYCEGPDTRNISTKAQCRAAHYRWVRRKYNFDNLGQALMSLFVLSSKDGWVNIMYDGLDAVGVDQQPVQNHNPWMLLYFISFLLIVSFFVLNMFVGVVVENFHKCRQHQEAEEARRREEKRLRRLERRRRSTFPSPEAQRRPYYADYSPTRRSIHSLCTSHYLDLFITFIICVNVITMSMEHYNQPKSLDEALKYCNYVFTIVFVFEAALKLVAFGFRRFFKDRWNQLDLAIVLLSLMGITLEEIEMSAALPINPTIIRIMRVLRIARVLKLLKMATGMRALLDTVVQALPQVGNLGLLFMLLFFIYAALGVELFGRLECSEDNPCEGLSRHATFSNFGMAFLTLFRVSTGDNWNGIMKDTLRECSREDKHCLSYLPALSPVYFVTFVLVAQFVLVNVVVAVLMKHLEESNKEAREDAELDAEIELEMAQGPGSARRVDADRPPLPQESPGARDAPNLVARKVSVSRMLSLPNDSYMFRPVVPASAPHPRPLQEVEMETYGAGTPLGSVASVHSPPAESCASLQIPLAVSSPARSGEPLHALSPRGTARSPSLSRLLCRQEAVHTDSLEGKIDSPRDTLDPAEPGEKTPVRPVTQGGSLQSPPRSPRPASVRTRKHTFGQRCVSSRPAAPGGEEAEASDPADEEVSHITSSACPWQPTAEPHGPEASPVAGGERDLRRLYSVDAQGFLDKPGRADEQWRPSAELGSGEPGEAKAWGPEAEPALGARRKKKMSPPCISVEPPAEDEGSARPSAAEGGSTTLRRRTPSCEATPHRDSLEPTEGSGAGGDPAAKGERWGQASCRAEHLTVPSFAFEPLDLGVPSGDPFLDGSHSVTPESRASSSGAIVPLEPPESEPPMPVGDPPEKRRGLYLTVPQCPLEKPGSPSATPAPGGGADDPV
T2 sequence (P34972 whole entry): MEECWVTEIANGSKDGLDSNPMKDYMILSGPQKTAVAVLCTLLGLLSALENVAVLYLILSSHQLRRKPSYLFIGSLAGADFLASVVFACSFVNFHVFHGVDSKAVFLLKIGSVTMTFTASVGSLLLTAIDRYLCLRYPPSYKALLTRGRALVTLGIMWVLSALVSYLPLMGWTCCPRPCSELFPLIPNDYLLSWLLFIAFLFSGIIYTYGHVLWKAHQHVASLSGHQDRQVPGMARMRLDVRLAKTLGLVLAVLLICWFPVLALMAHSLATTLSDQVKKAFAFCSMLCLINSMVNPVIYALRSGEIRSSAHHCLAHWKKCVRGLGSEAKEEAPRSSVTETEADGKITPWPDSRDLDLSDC

The IC50 is the point on the concentration scale where inhibition reaches its midpoint. A lower IC50 goes with greater potency in that assay. For orientation: Ki means the equilibrium dissociation constant of an inhibitor or competing ligand from its target. On CaV3.2, `CCCCCn1c2ccccc2c2cc(C(=O)OCCN(C)C)ccc21` [NMP-181] gave an IC50 of 4.6 µM. The Ki on human CB2 receptor worked out at 123 ± 28 nM. The “whole-cell patch clamp, 10 μM NMP-181, tsA-201 cells transiently expressing huma” value on CaV3.1 is listed as “the degree of inhibition was similar for all three CaV3 isoforms”.
